The text below walks through data of patent US12503436B2, “Compounds and compositions for treating conditions associated with STING activity” (NOVARTIS PHARMA AG, priority 2021, dated 2025).

For the assay, the target named is STING (Homo sapiens, UniProt Q86WV6, G230A/H232R/R293Q/R71H). The assay is described as follows: STING reporter assay in THP1-Dual KO-IFNAR2 cells (2′3′cGAMP stimulation, luciferase reporter). The following applies: 15 μM 2′3′cGAMP stimulation, 24 h, read-out: Pharmaron, THP1_IFNAR2 STING 24 h Luci Normalized: GeoMean EC50. The class given is cell-based. Summed up:
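EC50 from secreted luciferase (QUANTI-Luc Plus luminescence of supernatant) after 24 h at 37 °C, 5% CO2. Cells: THP1-Dual KO-IFNAR2, treated with compound (0.0017-100 μM final) plus lipofected 2′3′cGAMP at 15 μM final.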
On the technique in general: In a reporter assay the amount or activity of a reporter protein is the signal.

Chain of STING (Q86WV6 whole entry R71H/G230A/H232R/R293Q): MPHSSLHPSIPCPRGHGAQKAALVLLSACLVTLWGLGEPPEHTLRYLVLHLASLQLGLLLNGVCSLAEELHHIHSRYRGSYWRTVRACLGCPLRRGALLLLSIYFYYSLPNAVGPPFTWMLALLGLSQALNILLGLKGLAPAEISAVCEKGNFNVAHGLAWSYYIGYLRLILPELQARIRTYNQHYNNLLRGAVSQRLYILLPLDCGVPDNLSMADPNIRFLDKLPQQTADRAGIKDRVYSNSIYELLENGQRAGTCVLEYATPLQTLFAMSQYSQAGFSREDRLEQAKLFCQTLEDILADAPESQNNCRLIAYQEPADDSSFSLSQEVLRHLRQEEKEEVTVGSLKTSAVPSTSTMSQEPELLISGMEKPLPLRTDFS

`COCC1(C(=O)Nc2c[nH]c3ccc(O[C@H]4C[C@H](c5ccc(C(F)(F)F)cc5)C4)cc23)CC1` [Compound 468, l-(methoxymethyl)-N-{5-[(1R,3R)-3-[4-(trifluoromethyl)phenyl]cyclobutoxy]-1H-indol-3-yl}cyclopropane-1-carboxamide]: the 50% effective concentration (EC50) is 200 to 1000 nM. In the case of `CO[C@H]1C[C@](C)(C(=O)Nc2c[nH]c3ccc(OCC[C@@H]4C[C@@H]5CN(CC(F)(F)F)C[C@@H]5C4)cc23)C1` [Compound 427, trans-3-methoxy-1-methyl-N-(5-(2-((3aR,5r,6aS)-2-(2,2,2-trifluoroethyl)octahydrocyclopenta[c]pyrrol-5-yl)ethoxy)-1H-indol-3-yl)cyclobutane-1-carboxamide], the half-maximal effective concentration (EC50) fell in the range of 200 to 1000 nM. In the case of `C[C@H]1C[C@@H](C(=O)Nc2c[nH]c3ccc(CCOc4ccc(C(F)(F)F)cc4)cc23)C1` [Compound 393, cis-3-methyl-N-(5-(2-(4-(trifluoromethyl)phenoxy)ethyl)-1H-indol-3-yl)cyclobutane-1-carboxamide], the half-maximal effective concentration (EC50) was in the range of 200 to 1000 nM.

As for `CC(=O)Nc1c[nH]c2ccc(OCC3Cc4cn(CC(F)(F)F)nc4C3)cc12` (stereo not shown) [Compound 447, N-(5-((2-(2,2,2-trifluoroethyl)-2,4,5,6-tetrahydrocyclopenta[c]pyrazol-5-yl)methoxy)-1H-indol-3-yl)acetamide], the concentration giving a half-maximal response (EC50) lay in the range of 5000 to 100000 nM. In the case of `CC(=O)Nc1c[nH]c2ccc(Oc3ccc(C(F)(F)F)nc3)cc12` [Compound 123, N-(5-((6-(trifluoromethyl)pyridin-3-yl)oxy)-1H-indol-3-yl)acetamide], the half-maximal effective concentration (EC50) was in the range of 5000 to 100000 nM. Then `CC1(C(=O)Nc2c[nH]c3ccc(O[C@H]4C[C@H](c5ccc(C(F)(F)F)cc5)C4)cc23)COC1` [Compound 148, 3-methyl-N-(5-(trans-3-(4-(trifluoromethyl)phenyl)cyclobutoxy)-1H-indol-3-yl)oxetane-3-carboxamide], with 200 to 1000 nM. Consider `C[C@]1(C(=O)Nc2c[nH]c3ccc(OCCc4ccc(C(F)(F)F)cc4)cc23)C[C@H](CO)C1` [Compound 530, trans-3-(hydroxymethyl)-1-methyl-N-(5-(4-(trifluoromethyl)phenethoxy)-1H-indol-3-yl)cyclobutane-1-carboxamide], for which the concentration for a half-maximal effect (EC50) was in the range of 40 to 200 nM.

Take `CC1(C(=O)Nc2c[nH]c3ccc(OCc4ccc(C(F)(F)F)cc4)cc23)CN(CC(F)F)C1` [Compound 421, 1-(2,2-difluoroethyl)-3-methyl-N-(5-((4-(trifluoromethyl)benzyl)oxy)-1H-indol-3-yl)azetidine-3-carboxamide]: the EC50 lay in the range of 200 to 1000 nM. Turning to `COCC1(C(=O)Nc2c[nH]c3ccc(OCc4ccc(C(F)(F)F)cc4)cc23)CC1` [Compound 319, 1-(methoxymethyl)-N-(5-((4-(trifluoromethyl)benzyl)oxy)-1H-indol-3-yl)cyclopropane-1-carboxamide], the EC50 lay in the range of 200 to 1000 nM. The value for `N#CC1(C(=O)Nc2c[nH]c3ccc(CCOc4ccc(C(F)(F)F)cc4)cc23)CC1` [Compound 398, 1-cyano-N-(5-(2-(4-(trifluoromethyl)phenoxy)ethyl)-1H-indol-3-yl)cyclopropane-1-carboxamide] was 200 to 1000 nM. For `O=C(Nc1c[nH]c2ccc(OCCC3CCN(CC(F)(F)F)CC3)cc12)C1CCC1` [Compound 129, N-(5-(2-(1-(2,2,2-trifluoroethyl)piperidin-4-yl)ethoxy)-1H-indol-3-yl)cyclobutanecarboxamide], the EC50 lay within 200 to 1000 nM. Take `CC(=O)Nc1c[nH]c2c(C)cc(OCCC3CCN(CC(F)(F)F)CC3)cc12` [Compound 281, N-(7-methyl-5-(2-(1-(2,2,2-trifluoroethyl)piperidin-4-yl)ethoxy)-1H-indol-3-yl)acetamide]: the EC50 was 5000 to 100000 nM. For the molecule `O=C(Nc1c[nH]c2ccc(OCCc3ccc(C(F)(F)F)cc3)cc12)C1CC1` [Compound 252, N-(5-(4-(trifluoromethyl)phenethoxy)-1H-indol-3-yl)cyclopropanecarboxamide], the concentration for a half-maximal effect (EC50) is 40 to 200 nM. For the molecule `CC(=O)Nc1c[nH]c2c(F)cc(CCOc3ccc(C(F)(F)F)cc3)cc12` [Compound 270, N-(7-fluoro-5-(2-(4-(trifluoromethyl)phenoxy)ethyl)-1H-indol-3-yl)acetamide], the EC50 lay within 1000 to 5000 nM.

For the molecule `O=C(Nc1c[nH]c2ccc(O[C@H]3C[C@H](c4ccc(C(F)(F)F)cc4)C3)cc12)C1CC(O)C1` (stereo partly drawn) [Compound 573, 3-hydroxy-N-(5-(trans-3-(4-(trifluoromethyl)phenyl)cyclobutoxy)-1H-indol-3-yl)cyclobutane-1-carboxamide], the EC50 lay in the range of 40 to 200 nM. For the molecule `CC(=O)Nc1c[nH]c2ccc(OCC3CCc4ccc(C(F)(F)F)cc4C3)cc12` (stereo not shown) [Compound 437, N-(5-((7-(trifluoromethyl)-1,2,3,4-tetrahydronaphthalen-2-yl)methoxy)-1H-indol-3-yl)acetamide], the concentration for a half-maximal effect (EC50) lay within 200 to 1000 nM.

As to `CC(=O)Nc1c[nH]c2ccc(CCOc3ccc(-c4ccncc4)cc3)cc12` [Compound 451, N-(5-{2-[4-(pyridin-4-yl)phenoxy]ethyl} -1H-indol-3-yl)acetamide], the concentration giving a half-maximal response (EC50) was 1000 to 5000 nM. For `CC(=O)Nc1c[nH]c2ccc(CC[C@@H]3C[C@@H]4CN(CC(F)(F)F)C[C@@H]4C3)cc12` [Compound 457, N-(5-(2-((3aR,5r,6aS)-2-(2,2,2-trifluoroethyl)octahydrocyclopenta[c]pyrrol-5-yl)ethyl)-1H-indol-3-yl)acetamide], the EC50 lay in the range of 200 to 1000 nM.

In the case of `CC(=O)Nc1c[nH]c2ccc(O[C@@H]3C[C@H](c4ccc(C(F)(F)F)cc4)C3(C)C)cc12` (relative stereo) [Compound 432, N-(5-(cis-2,2-dimethyl-3-(4-(trifluoromethyl)phenyl)cyclobutoxy)-1H-indol-3-yl)acetamide], the EC50 lay within 1000 to 5000 nM.

In the case of `O=C(Nc1c[nH]c2ccc(OCCc3ccc(C(F)(F)F)cc3)cc12)C1CCOCC1` [Compound 239, N-(5-(4-(trifluoromethyl)phenethoxy)-1H-indol-3-yl)tetrahydro-2H-pyran-4-carboxamide], the EC50 was 40 to 200 nM. As for `CC(=O)Nc1c[nH]c2ccc(CNc3ccc(C(F)(F)F)nc3)cc12` [Compound 125, N-(5-(((6-(trifluoromethyl)pyridin-3-yl)amino)methyl)-1H-indol-3-yl)acetamide], the EC50 is 200 to 1000 nM. For `CC(=O)Nc1c[nH]c2ccc(O[C@@H]3C[C@@H](c4ccc(C(F)(F)F)cc4)[C@H]3C)cc12` [Compound 443, N-(5-((1R,2R,3R)-2-methyl-3-(4-(trifluoromethyl)phenyl)cyclobutoxy)-1H-indol-3-yl)acetamide], the concentration for a half-maximal effect (EC50) lay within 200 to 1000 nM. For `N#C[C@H]1C[C@@H]1C(=O)Nc1c[nH]c2ccc(CCOc3ccc(C(F)(F)F)cc3)cc12` [Compound 391, (1S,2S)-2-cyano-N-(5-(2-(4-(trifluoromethyl)phenoxy)ethyl)-1H-indol-3-yl)cyclopropane-1-carboxamide], the EC50 lay within 40 to 200 nM. In the case of `O=C(Nc1c[nH]c2ccc(OCc3ccc(C(F)(F)F)cc3)cc12)C1CC1(F)F` (stereo not shown) [Compound 330, 2,2-difluoro-N-(5-((4-(trifluoromethyl)benzyl)oxy)-1H-indol-3-yl)cyclopropane-1-carboxamide], the concentration giving a half-maximal response (EC50) was in the range of 200 to 1000 nM. For `CCC(=O)Nc1c[nH]c2ccc(COc3ccc(C(F)(F)F)cc3)cc12` [Compound 130, N-(5-((4-(trifluoromethyl)phenoxy)methyl)-1H-indol-3-yl)propionamide], the EC50 was 200 to 1000 nM.

With `CC(=O)Nc1c[nH]c2ccc(OCCn3ccc(C(F)(F)F)n3)cc12` [Compound 196, N-(5-(2-(3-(trifluoromethyl)-1H-pyrazol-1-yl)ethoxy)-1H-indol-3-yl)acetamide], the EC50 fell in the range of 5000 to 100000 nM. `CC1(C(=O)Nc2c[nH]c3ccc(OCc4ccc(C(F)(F)F)cc4)cc23)CCOC1` (stereo not shown) [Compound 154, 3-methyl-N-(5-((4-(trifluoromethyl)benzyl)oxy)-1H-indol-3-yl)tetrahydrofuran-3-carboxamide]: the EC50 lay within 200 to 1000 nM.

Turning to `CC(=O)Nc1c[nH]c2ccc(OCC(F)(F)CN3CCC(F)(F)CC3)cc12` [Compound 112, N-(5-(3-(4,4-difluoropiperidin-1-yl)-2,2-difluoropropoxy)-1H-indol-3-yl)acetamide], the EC50 was in the range of 5000 to 100000 nM. Turning to `CC1(C(=O)Nc2c[nH]c3ccc(OCCc4ccc(C(F)(F)F)cc4)cc23)CN(CC(F)F)C1` [Compound 561, 1-(2,2-difluoroethyl)-3-methyl-N-(5-(4-(trifluoromethyl)phenethoxy)-1H-indol-3-yl)azetidine-3-carboxamide], the EC50 lay within 40 to 200 nM. As to `O=C(Nc1c[nH]c2ccc(CC(O)Cc3ccc(C(F)(F)F)cc3)cc12)C1CC1` (single isomer, unassigned) [Compound 201, N-(5-(2-hydroxy-3-(4-(trifluoromethyl)phenyl)propyl)-1H-indol-3-yl)cyclopropanecarboxamide], the EC50 was 200 to 1000 nM.

As to `CC(=O)Nc1c[nH]c2ccc(CCOc3ccc(Cl)nc3C)cc12` [Compound 556, N-(5-(2-((6-chloro-2-methylpyridin-3-yl)oxy)ethyl)-1H-indol-3-yl)acetamide], the EC50 fell in the range of 5000 to 100000 nM. As to `CC(=O)Nc1c[nH]c2ccc(OC3CCN(c4ccc(C(F)(F)F)cc4)C3)cc12` (stereo not shown) [Compound 494, N-(5-((1-(4-(trifluoromethyl)phenyl)pyrrolidin-3-yl)oxy)-1H-indol-3-yl)acetamide], the EC50 was in the range of 200 to 1000 nM. For the molecule `CC1(C)CC(C(=O)Nc2c[nH]c3ccc(OCc4ccc(C(F)(F)F)cc4)cc23)C1` [Compound 327, 3,3-dimethyl-N-(5-((4-(trifluoromethyl)benzyl)oxy)-1H-indol-3-yl)cyclobutane-1-carboxamide], the concentration giving a half-maximal response (EC50) was 200 to 1000 nM. For the molecule `CC1(C)CC1C(=O)Nc1c[nH]c2ccc(O[C@H]3C[C@@H](c4ccc(C(F)(F)F)cc4)C3)cc12` (stereo partly drawn) [Compound 359, 2,2-dimethyl-N-(5-(cis-3-(4-(trifluoromethyl)phenyl)cyclobutoxy)-1H-indol-3-yl)cyclopropane-1-carboxamide], the EC50 was in the range of 40 to 200 nM.

Broadly, the EC50 is the concentration giving half of the maximal effect.
